Experimental data from ChEMBL document CHEMBL5316350, “Novel Pyrido[2',1':2,3]imidazo[4,5-c]quinoline Derivative Selectively Poisons Leishmania donovani Bisubunit Topoisomerase 1 to Inhibit the Antimony-Resistant Leishmania Infection in Vivo” (J Med Chem, 2023).
Calls of active or inactive are those of the source. No cut-off for these calls is given here.

What was measured:
[1] = molecular target: T1, DNA topoisomerase I (Leishmania donovani (strain BPK282A1)) (UniProt E9BRC0); assay: Binding affinity to topoisomerase I in Leishmania donovani Ag83 whole cell lysate assessed as stabilization of cleavage complex at 5 to 50 uM measured after 30 mins; format: subcellular; conditions: dose 5-50 µM
T1 sequence (whole entry): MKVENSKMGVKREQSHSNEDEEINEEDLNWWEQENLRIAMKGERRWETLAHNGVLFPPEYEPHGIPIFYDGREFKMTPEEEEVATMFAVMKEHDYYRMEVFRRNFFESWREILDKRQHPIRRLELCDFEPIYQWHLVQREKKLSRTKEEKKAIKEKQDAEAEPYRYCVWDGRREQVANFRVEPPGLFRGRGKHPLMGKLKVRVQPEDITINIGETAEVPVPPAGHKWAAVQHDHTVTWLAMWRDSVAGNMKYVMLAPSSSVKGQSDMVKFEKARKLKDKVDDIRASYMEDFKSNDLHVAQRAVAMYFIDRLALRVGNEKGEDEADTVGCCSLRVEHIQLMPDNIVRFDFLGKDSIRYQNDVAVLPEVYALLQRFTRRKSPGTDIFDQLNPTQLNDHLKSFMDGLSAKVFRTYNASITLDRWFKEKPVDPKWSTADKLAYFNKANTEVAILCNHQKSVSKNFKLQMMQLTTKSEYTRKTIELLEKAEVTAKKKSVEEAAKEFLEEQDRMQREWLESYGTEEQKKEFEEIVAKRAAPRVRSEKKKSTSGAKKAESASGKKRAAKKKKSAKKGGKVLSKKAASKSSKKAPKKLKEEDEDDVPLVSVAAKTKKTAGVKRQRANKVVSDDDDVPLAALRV

Leishmania donovani [2] = assay: Induction of cell cycle arrest in Leishmania donovani Ag83 promastigotes assessed as decrease in accumulation of cells in G2/M phase at 5 uM measured after 24 hrs by PI staining based flow cytometry (reference value: 15.1 %); format: functional; parameters: scale not given: the % may be the effect or the level left
MCF7 [3] = assay: Induction of cell cycle arrest in human MCF7 cells measured at 5 uM upto 24 hrs by PI staining based flow cytometry; format: functional
Leishmania donovani [4] = assay: Induction of apoptosis in Leishmania donovani Ag83 promastigotes assessed as late apoptotic cells measured at 5 uM after 12 hrs by Annexin V-FITC/PI staining based flow cytometric analysis (reference value: 0.1%); format: functional
Leishmania donovani [5] = assay: Induction of apoptosis in Leishmania donovani Ag83 promastigotes assessed as necrotic cells measured at 5 uM after 12 hrs by Annexin V-FITC/PI staining based flow cytometric analysis; format: functional, organism-based
Leishmania donovani [6] = assay: Induction of apoptosis in Leishmania donovani Ag83 promastigotes assessed as increase in apoptotic genomic DNA fragmentation measured at 5 uM after 6 hrs by Annexin V-FITC/PI staining based flow cytometric analysis; format: functional, organism-based
MCF7 [7] = assay: Potency index ratio of test compound IC50 to camptothecin IC50 for cytotoxicity against human MCF7 cells; format: functional
Leishmania donovani [8] = assay: Reversal of Top1cc-induced DNA breakdown in Leishmania donovani Ag83 promastigotes by measuring TUNEL positive cells treated for 6 to 12 hrs followed by compound removal measured after 6 to 12 hrs by confocal microscopic analysis relative to camptothecin; format: functional, organism-based; conditions: time 6-12 hrs
Leishmania donovani [9] = assay: Antileishmanial activity in Leishmania donovani Ag83 promastigotes assessed as fold change in persistent Top1cc-induced DNA breakdown by measuring TUNEL positive cells treated for 6 to 12 hrs followed by compound removal measured after 6 to 12 hrs by confocal microscopic analysis relative to camptothecin; format: functional; conditions: time 6-12 hrs
Leishmania donovani [10] = assay: Induction of cell cycle arrest in antimony resistant Leishmania donovani BHU575 promastigotes assessed as decrease in accumulation of cells in S phase at 5 uM measured after 6 hrs by PI staining based flow cytometry (reference value: 9.8%); format: functional; parameters: scale not given: the % may be the effect or the level left
[11] = Toxicity in BALB/c mouse infected with Leishmania donovani Ag83 promastigotes assessed as change in body weight treated after 3 weeks of infection at 5 to 10 mg/kg, ip twice a week for 3 weeks; format: organism-based; conditions: in vivo, dose 5-10 mg/kg
Leishmania donovani [12] = assay: Antileishmanial activity against Leishmania donovani Ag83 promastigotes infected in BALB/c mouse assessed as reduction of amastigote burden in liver treated after 3 weeks of infection at 5 to 10 mg/kg, ip twice a week for 3 weeks by Giemsa staining stamp-smear based limiting dilution assay; format: functional, organism-based; conditions: dose 5-10 mg/kg
Leishmania donovani [13] = assay: Antileishmanial activity against Leishmania donovani Ag83 promastigotes infected in BALB/c mouse assessed as reduction of amastigote burden by measuring parasite count in blood treated after 3 weeks of infection at 5 to 10 mg/kg, ip twice a week for 3 weeks by qPCR based kineto-plastid DNA; format: functional, organism-based; conditions: dose 5-10 mg/kg

Q: For COc1cc(-c2nc3ccccc3c3nc4ccccn4c23)cc(OC)c1OC, which Activity [1] is on record?
A: Active

Q: And the Activity (Leishmania donovani [2])?
A: 34.2%

Q: What about the Activity (MCF7 [3]) of the same molecule?
A: inactive

Q: And the Activity (Leishmania donovani [4])?
A: 61%

Q: And the Activity (Leishmania donovani [5])?
A: Active

Q: And the Activity (Leishmania donovani [6])?
A: Active

Q: And the “Ratio IC50” value (MCF7 [7])?
A: 90

Q: What about the Activity (Leishmania donovani [8]) of the same molecule?
A: inactive

Q: What about the “fold change (FC)” value (Leishmania donovani [9]) of the same molecule?
A: 3

Q: What about the Activity (Leishmania donovani [10]) of the same molecule?
A: 24.5%

Q: What about the Activity [11] of the same molecule?
A: Non-Toxic

Q: What about the Activity (Leishmania donovani [12]) of the same molecule?
A: Active

Q: And the Activity (Leishmania donovani [13])?
A: Active
